The record followed here is US9062026B2, “Fused pyrimidines and substituted quinazolines as inhibitors of p97” (Cleave Biosciences, Inc., priority 2012, dated 2015).

Bounds are passed on as bounds.

One experiment has as its system A549 K48. In words: A549 K48 cell intensity (lysine-48 poly-ubiquitin accumulation, immunofluorescence). The conditions noted are these: Homo sapiens. It counts as cell-based. As to the method: Image-analysis is used to generate quantitative data from these assays that can be fit to a four-parameter sigmoid curve to derive IC50 values. Substrates of the ubiquitin-proteasome system, such as p53, are monitored after tumor cell lines are incubated with compounds for several hours. Accumulation of these proteins indicates an inhibition of proteasome-mediated degradation. Accumulation of lysine-48 chain linkage of poly-ubiquitin is also monitored by immunofluorescence as an indicator of ubiquitin-proteasome system inhibition. Both LC3 and SQSTM1 are mediators of autophagy. The localization and amounts of these proteins are monitored by immunofluorescence and report on the activity and inhibition of autophagy in response to p97 inhibition.

For another experiment, the target named is p97 (Homo sapiens (Human), UniProt P55072). Put plainly: P97 ATPase biochem assay (ADP Glo). It counts as biochemical. Particulars: read-out: p97 IC50. As to the method: The ATPase assay is performed according the following protocol: Purified enzyme (20 nM p97), substrate (20 μM ATP) and a dose titration of compounds are mixed in buffer (50 mM TRIS pH 7.5, 20 mM MgCl2, 0.02% TX-100, 1 mM DTT, 0.2% (v/v) glycerol) and incubated at 37° C. for 15 minutes. The reaction is terminated and the level of product generated is measured using the ADP Glo Assay Kit (Promega, Madison Wis.). Plotting product generated versus compound concentration and using a four-parameter fit model generates an IC50 value for each compounds.
On the technique in general: In ADP-Glo the light output rises with the ADP produced.

Sequence of p97 (P55072 whole entry): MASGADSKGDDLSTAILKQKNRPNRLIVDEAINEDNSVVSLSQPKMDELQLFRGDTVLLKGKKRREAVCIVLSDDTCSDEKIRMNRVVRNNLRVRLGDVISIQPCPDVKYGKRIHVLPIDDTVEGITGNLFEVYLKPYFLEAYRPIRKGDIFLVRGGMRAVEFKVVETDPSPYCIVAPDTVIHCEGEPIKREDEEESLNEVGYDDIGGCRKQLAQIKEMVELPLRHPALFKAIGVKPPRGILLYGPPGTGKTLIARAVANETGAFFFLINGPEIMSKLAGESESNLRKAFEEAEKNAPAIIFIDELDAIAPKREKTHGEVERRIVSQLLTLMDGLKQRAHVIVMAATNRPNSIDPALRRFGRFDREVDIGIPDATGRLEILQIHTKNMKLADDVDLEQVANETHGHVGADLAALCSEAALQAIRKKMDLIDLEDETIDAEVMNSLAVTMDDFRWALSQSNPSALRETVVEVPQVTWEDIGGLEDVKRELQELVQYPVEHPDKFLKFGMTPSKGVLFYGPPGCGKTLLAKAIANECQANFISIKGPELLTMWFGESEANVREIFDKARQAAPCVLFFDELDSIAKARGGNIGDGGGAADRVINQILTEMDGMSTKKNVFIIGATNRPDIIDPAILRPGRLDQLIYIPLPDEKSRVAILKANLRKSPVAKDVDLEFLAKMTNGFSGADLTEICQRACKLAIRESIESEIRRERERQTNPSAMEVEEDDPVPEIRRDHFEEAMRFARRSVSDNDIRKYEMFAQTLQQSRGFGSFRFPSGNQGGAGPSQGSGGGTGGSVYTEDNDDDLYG

On to `COc1cc2c(C#N)cccc2n1-c1nc2c(c(NCc3ccccc3)n1)CCCC2` [1-[4-(benzylamino)-5,6,7,8-tetrahydroquinazolin-2-yl]-2-methoxy-1H-indole-4-carbonitrile], for which the IC50 (in general, the concentration needed to halve the response being measured) is under 10 µM with A549 K48 and under 100 nM at p97.
With `Cc1nc2c(C#N)cccc2n1-c1nc2c(c(NCc3ccccc3)n1)CCCC2` [1-[4-(benzylamino)-5,6,7,8-tetrahydroquinazolin-2-yl]-2-methyl-1H-1,3-benzodiazole-4-carbonitrile], the concentration for half-maximal inhibition (IC50) in the experiment with A549 K48 was under 10 µM; at p97, under 100 nM.
Consider `Cc1cc2c(C(N)=O)cccc2n1-c1nc2c(c(NCc3ccccc3)n1)CNCC2` [1-[4-(benzylamino)-5H,6H,7H,8H-pyrido[4,3-d]pyrimidin-2-yl]-2-methyl-1H-indole-4-carboxamide], for which the half-maximal inhibitory concentration (IC50) in the experiment with A549 K48 is under 10 µM; on p97, under 100 nM.
Turning to `COc1cc2c(C#N)cccc2n1-c1nc2c(c(NCc3ccccc3)n1)COCC2` [1-[4-(benzylamino)-5H,7H,8H-pyrano[4,3-d]pyrimidin-2-yl]-2-methoxy-1H-indole-4-carbonitrile], the 50% inhibitory concentration (IC50) is under 10 µM in the experiment on A549 K48 and under 100 nM at p97.
As for `COc1cc2c(C(N)=O)cccc2n1-c1nc2c(c(NCc3ccccc3)n1)COCC2` [1-[4-(benzylamino)-5H,7H,8H-pyrano[4,3-d]pyrimidin-2-yl]-2-methoxy-1H-indole-4-carboxamide], the IC50 is under 10 µM in the experiment with A549 K48 and under 30 nM at p97.
Regarding `Cc1cc2c(C(N)=O)cccc2n1-c1nc2c(c(NCc3ccccc3)n1)COCC2` [1-[4-(benzylamino)-5H,7H,8H-pyrano[4,3-d]pyrimidin-2-yl]-2-methyl-1H-indole-4-carboxamide], the 50% inhibitory concentration (IC50) with A549 K48 was under 10 µM.
For the compound `Cc1cc2c(C#N)cccc2n1-c1nc2c(c(NCc3ccccc3)n1)CN(C)CC2` [1-[4-(benzylamino)-6-methyl-5H,6H,7H,8H-pyrido[4,3-d]pyrimidin-2-yl]-2-methyl-1H-indole-4-carbonitrile], the half-inhibitory concentration (IC50) was under 10 µM in the experiment with A549 K48 and under 100 nM on p97.
On the same counts, the results for `COc1cccc2c(NCc3ccccc3)nc(-n3c(C(C)N)cc4ccccc43)nc12` (stereo not shown) [2-[2-(1-aminoethyl)-1H-indol-1-yl]-N-benzyl-8-methoxyquinazolin-4-amine] are under 10 µM and under 300 nM.
With `NCc1cc2ccccc2n1-c1nc2c(c(NCc3ccccc3)n1)CCCC2` [2-[2-(aminomethyl)-1H-indol-1-yl]-N-benzyl-5,6,7,8-tetrahydroquinazolin-4-amine], the IC50 was under 10 µM in the experiment with A549 K48 and under 300 nM at p97.
As to `NC(=O)NCc1cc2ccccc2n1-c1nc2c(c(NCc3ccccc3)n1)CCCC2` [({1-[4-(benzylamino)-5,6,7,8-tetrahydroquinazolin-2-yl]-1H-indol-2-yl}methyl)urea], the IC50 in the experiment on A549 K48 was under 10 µM; on p97, under 100 nM.
Turning to `CC(=O)NCc1cc2ccccc2n1-c1nc2c(c(NCc3ccccc3)n1)CCCC2` [N-({1-[4-(benzylamino)-5,6,7,8-tetrahydroquinazolin-2-yl]-1H-indol-2-yl}methyl)acetamide], the IC50 in the experiment with A549 K48 was under 10 µM; on p97, under 100 nM.
On to `CS(=O)(=O)NCc1cc2ccccc2n1-c1nc2c(c(NCc3ccccc3)n1)CCCC2` [N-({1-[4-(benzylamino)-5,6,7,8-tetrahydroquinazolin-2-yl]-1H-indol-2-yl}methyl)methanesulfonamide], for which the half-inhibitory concentration (IC50) in the experiment on A549 K48 is under 10 µM; on p97 it was under 300 nM.
Taken in the same sequence, the figures for `Clc1cc2ccccc2n1-c1nc2c(c(NCc3ccccc3)n1)CCCC2` [N-benzyl-2-(2-chloro-1H-indol-1-yl)-5,6,7,8-tetrahydroquinazolin-4-amine] were under 10 µM and under 100 nM.
`CCOc1cc2ccccc2n1-c1nc2c(c(NCc3ccccc3)n1)CCCC2` [N-benzyl-2-(2-ethoxy-1H-indol-1-yl)-5,6,7,8-tetrahydroquinazolin-4-amine]: the half-maximal inhibitory concentration (IC50) is under 10 µM in the experiment with A549 K48 and under 100 nM on p97.
On the same counts, the results for `COCCOc1cccc2c(NCc3ccccc3)nc(-n3c(OC)nc4ccccc43)nc12` [N-benzyl-2-(2-methoxy-1H-1,3-benzodiazol-1-yl)-8-(2-methoxyethoxy)quinazolin-4-amine] are under 10 µM and under 300 nM.
Taken in the same sequence, the figures for `COc1cc2ccccc2n1-c1nc2c(c(NCc3ccccc3)n1)CCCC2` [N-benzyl-2-(2-methoxy-1H-indol-1-yl)-5,6,7,8-tetrahydroquinazolin-4-amine] were under 10 µM and under 30 nM.
Taken in the same sequence, the figures for `COc1cc2ccccc2n1-c1nc2c(c(NCc3ccccc3)n1)COCC2` [N-benzyl-2-(2-methoxy-1H-indol-1-yl)-5H,7H,8H-pyrano[4,3-d]pyrimidin-4-amine] were under 10 µM and under 300 nM.
As to `COc1cccc2c(NCc3ccccc3)nc(-n3c(/C=C/S(C)(=O)=O)cc4ccccc43)nc12` [N-benzyl-2-{2-[(E)-2-methanesulfonylethenyl]-1H-indol-1-yl}-8-methoxyquinazolin-4-amine], the IC50 was under 10 µM in the experiment with A549 K48 and under 300 nM on p97.
On the same counts, the results for `CN(C)Cc1cc2ccccc2n1-c1nc2c(c(NCc3ccccc3)n1)CCCC2` [N-benzyl-2-{2-[(dimethylamino)methyl]-1H-indol-1-yl}-5,6,7,8-tetrahydroquinazolin-4-amine] are under 10 µM and under 300 nM.
Taken in the same sequence, the figures for `COCCOc1cccc2c(NCc3ccccc3)nc(-n3c(C)cc4ccccc43)nc12` [N-benzyl-8-(2-methoxyethoxy)-2-(2-methyl-1H-indol-1-yl)quinazolin-4-amine] were under 10 µM and under 100 nM.
Turning to `COc1cccc2c(NCc3ccccc3)nc(-n3c(OC)cc4ccccc43)nc12` [N-benzyl-8-methoxy-2-(2-methoxy-1H-indol-1-yl)quinazolin-4-amine], the IC50 in the experiment with A549 K48 is under 10 µM; at p97 it was under 100 nM.
As to `COC(=O)NCc1cc2ccccc2n1-c1nc2c(c(NCc3ccccc3)n1)CCCC2` [methyl N-({1-[4-(benzylamino)-5,6,7,8-tetrahydroquinazolin-2-yl]-1H-indol-2-yl}methyl)carbamate], the IC50 in the experiment on A549 K48 is under 10 µM; on p97, under 300 nM.
`OCc1nc2ccccc2n1-c1nc2c(c(NCc3ccccc3)n1)CCCC2` [{1-[4-(benzylamino)-5,6,7,8-tetrahydroquinazolin-2-yl]-1H-1,3-benzodiazol-2-yl}methanol]: the IC50 on p97 is under 300 nM.
As for `OCc1cc2ccccc2n1-c1nc2c(c(NCc3ccccc3)n1)CCCC2` [{1-[4-(benzylamino)-5,6,7,8-tetrahydroquinazolin-2-yl]-1H-indol-2-yl}methanol], the 50% inhibitory concentration (IC50) in the experiment with A549 K48 is under 10 µM; on p97, under 100 nM.
Regarding `COCCOc1cccc2c(NCc3ccccc3)nc(-n3c(CO)nc4ccccc43)nc12` [{1-[4-(benzylamino)-8-(2-methoxyethoxy)quinazolin-2-yl]-1H-1,3-benzodiazol-2-yl}methanol], the half-inhibitory concentration (IC50) on p97 was under 300 nM.
In the case of `COCCOc1cccc2c(NCc3ccccc3)nc(-n3c(CO)cc4ccccc43)nc12` [{1-[4-(benzylamino)-8-(2-methoxyethoxy)quinazolin-2-yl]-1H-indol-2-yl}methanol], the values for the IC50 in the experiment on A549 K48 and at p97 were under 10 µM and under 100 nM, respectively.
